From article PMC4178217, “Quinoline 3-sulfonamides inhibit lactate dehydrogenase A and reverse aerobic glycolysis in cancer cells” (Cancer & Metabolism, 2013) come the findings set out here.

In series [1] the target is Glycogen synthase kinase 3b (Homo sapiens, UniProt P49841). The series is described as follows: Glycogen synthase kinase 3b ANT. Format: biochemical. The settings on record: antagonist; read-out: pIC50 Glycogen synthase kinase 3b ANT (converted). The source says:
ANT = antagonist (pIC50), AG = agonist (pEC50). pIC50 and pEC50 are the negative logarithms10 of IC50 and EC50, respectively. Click here for file

Series [2] concerns the target recombinant human LDHA (Homo sapiens, UniProt P00338). In words: LDHA enzymatic assay with increasing levels of NADH. Format: biochemical. The note with it: NADH 120 μM; read-out: LDHA IC50 at high NADH. On the procedure: LDHA enzymatic assay with increasing levels of NADH The following reaction was assembled in clear-bottom 96 well plate: 50 mM phosphate buffer pH 7.0, 50 mM NaCl, 0.25 mM CHAPS, 200 µM NaPyruvate, 250 pM recombinant human LDHA, and the indicated amounts of NADH and Compound 2. Absorbance change due to NADH conversion to NAD^+ was read on SpectraMax M2 (Molecular Devices, Sunnyvale, CA) at 340 nm every 40 sec for 6 min.

For series [3], the target named is recombinant human LDHB (Homo sapiens, UniProt P07195). The series is described as follows: recombinant human LDHB enzyme assay (lactate to pyruvate, NADH via diaphorase/resazurin).
Series [4] relates to Snu398 cells. In words: Oxygen consumption and extracellular acidification rates, Snu398 (Seahorse). Format: cell-based. The settings on record: Homo sapiens, SNU-398, 92 min, Snu398, 92 minutes after addition. On the procedure:
(§1) One hundred twenty thousand Snu398 or HepG2 human hepatocellular carcinoma cells per well were plated in XF24 PS or XF96 PET cell culture microplates (Seahorse Biosciences, North Billerica, MA, USA) and allowed to attach and proliferate for 18 h. Cells were equilibrated with DMEM lacking bicarbonate (Seahorse Biosciences) supplemented with glucose at 37°C for 1 h in an incubator lacking CO2. The rate of change of dissolved O2 (oxygen consumption rate, OCR) and rate of change of pH (extracellular acidification rate, ECAR) in medium immediately surrounding the cells was measured in the XF24 Analyzer (Seahorse Biosciences) per manufacturer’s instructions. Compound doses were injected into the wells at the indicated times. For dose response curves, the OCR and ECAR levels obtained in each well before compound addition were subtracted from the values obtained 92 minutes after compound addition.

Series [5] concerns PKM2 in Snu398 cells. In words: PKM2 tetramerization (native gel, western immunoblotting). Format: cell-based, human. The note with it: Snu398, 6 h. On the procedure: One and a half million cells per well were plated in 6-well tissue culture plates in R10 medium and allowed to attach overnight. The following morning, cells were washed and medium replaced with 2 mL/well of low-glucose medium. DMSO control or the indicated doses of LDHA inhibitor dissolved in DMSO were added to the wells and cells were incubated at 37°C for 6 h. Following the incubation, cells were washed, scraped into 200 μl of distilled de-ionized water and homogenized on ice using OMNI THq homogenizer (Omni International, Kennesaw, GA, USA). Homogenates were cleared by centrifugation and protein concentration measured by bicinchoninic acid (BCA) assay (Thermo Fisher Scientific, Waltham, MA, USA). PK activity was determined using PK Activity kit (BioVision Research Products) per manufacturer’s instructions and normalized to protein concentration. For detection of PKM2 oligomerization, the same protein samples were separated by non-denaturing gel electrophoresis using the NativePAGE™ gel system (Life Technologies), transferred onto polyvinylidene difluoride (PVDF) membranes and subjected to western immunoblotting with anti-PKM2 antibody.

For series [6], the system named is HepG2 cells. The series is described as follows: Oxygen consumption and extracellular acidification rates, HepG2 (Seahorse). Format: cell-based, human. The note with it: for EC50: Homo sapiens, 92 min, HepG2, 92 minutes after addition. The procedure:
as §1
(§2) For XF96 experiments breast cancer cells were seeded in DMEM without bicarbonate at 16,000/well in XF96 V3 PET plates (Seahorse Biosciences) coated with CellTak (BD Biosciences, San Jose, CA, USA). […] HepG2 cells were seeded at 16K/well in XF96 V3 PET plates and left overnight for attachment. The medium was exchanged with DMEM without bicarbonate prior to readings on the XF96 Analyzer (Seahorse Biosciences).

The subject of series [7] is HepG2 cells. In words: Cell proliferation and survival, HepG2 (trypan blue, Vi-Cell). Format: cell-based, human. The settings on record: 4 to 8 days. On the procedure:
Sixty thousand Snu398 cells per well were plated in 6-well tissue culture plates in RPMI-1640 medium supplemented with 2.5% charcoal-stripped FBS (Life Technologies). Cells were allowed to attach overnight and then DMSO control or the indicated doses of LDHA inhibitor dissolved in DMSO were added directly to the wells. After 4 to 8 days of incubation in the indicated oxygen conditions, adherent cells were trypsinized, counted, and had their viability assessed by the trypan-blue exclusion method using the Vi-Cell XR Cell Viability Analyzer (Beckman Coulter, Brea, CA, USA). The same procedure was carried out for HepG2 cells, except non-charcoal-stripped FBS was used. For PARP cleavage analysis, both floating and adherent cells were collected after 24 h and the whole-cell extracts were prepared in radioimmunoprecipitation assay (RIPA) buffer (Sigma-Aldrich) supplemented with protease and phosphatase inhibitor cocktails (Sigma-Aldrich). Solubilized proteins were separated by SDS-PAGE, transferred onto nitrocellulose membrane, and detected with each specific antibody.

The nature of series [8]: PK analysis in mice. Format: in vivo, male CD mice. The settings on record: oral 100 mg/kg, detection limit 2.5 ng/mL. On the procedure: All studies were conducted after review by the Institutional Animal Care and Use Committee at GlaxoSmithKline (GSK) and in accordance with the GSK Policy on the Care, Welfare and Treatment of Laboratory Animals.
Series [9] deals with MDA-MB-453 cells. In words: ECAR after rotenone/antimycin, MDA-MB-453 (Seahorse XF96). Format: cell-based. The settings on record: Homo sapiens; MDA-MB-453, after rotenone/antimycin. The procedure:
as §2

A short description of series [10]: human plasma protein binding by equilibrium dialysis. Format: in vitro ADME.

Read-outs that look alike come from different tables or passages of the source.

Chain of Glycogen synthase kinase 3b (P49841 whole entry): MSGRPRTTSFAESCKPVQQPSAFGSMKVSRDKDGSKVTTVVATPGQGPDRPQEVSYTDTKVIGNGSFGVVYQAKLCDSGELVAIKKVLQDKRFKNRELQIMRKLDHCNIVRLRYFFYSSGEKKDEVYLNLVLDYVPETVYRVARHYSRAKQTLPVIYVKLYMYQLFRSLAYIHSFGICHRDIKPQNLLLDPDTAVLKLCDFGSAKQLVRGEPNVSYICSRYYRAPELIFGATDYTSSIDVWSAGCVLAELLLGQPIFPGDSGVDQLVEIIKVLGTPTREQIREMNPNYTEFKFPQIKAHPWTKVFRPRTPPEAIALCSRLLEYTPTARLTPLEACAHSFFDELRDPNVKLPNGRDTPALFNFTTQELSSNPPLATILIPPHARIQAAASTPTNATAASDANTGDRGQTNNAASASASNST
Chain of recombinant human LDHB (P07195 whole entry): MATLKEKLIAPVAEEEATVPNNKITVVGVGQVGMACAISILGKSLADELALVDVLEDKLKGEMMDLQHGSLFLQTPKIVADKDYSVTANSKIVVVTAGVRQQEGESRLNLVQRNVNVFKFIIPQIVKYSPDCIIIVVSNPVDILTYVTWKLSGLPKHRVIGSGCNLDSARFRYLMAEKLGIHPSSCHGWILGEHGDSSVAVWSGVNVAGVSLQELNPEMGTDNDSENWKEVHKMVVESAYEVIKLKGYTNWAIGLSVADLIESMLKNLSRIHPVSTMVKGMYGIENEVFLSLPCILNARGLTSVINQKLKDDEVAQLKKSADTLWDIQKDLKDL

Regarding `COc1ncc(-c2ccc3c(Nc4cc(C(=O)O)cc(C5CCCC5)c4)c(S(=O)(=O)NC4CC4)cnc3c2)c(OC)n1` [Compound 2], the IC50 in series [1] is 31600 nM; in series [2], 67 nM; in series [3] it was 220 ± 20 nM.
As to `COc1ncc(-c2ccc3c(Nc4cc(Oc5cc(F)cc(F)c5)cc(C(=O)O)c4)c(S(=O)(=O)NC4CC4)cnc3c2)c(OC)n1` [Compound 1], the EC50 in [4] (read-out: ECAR change EC50) is 600 ± 200 nM; in series [4] (read-out: OCR change EC50) it was 500 ± 300 nM; in series [6] (read-out: ECAR change EC50) it was 600 ± 100 nM; in [6] (read-out: OCR change EC50) it was 900 ± 300 nM; in [9] it was 10000 nM. Further, the PKM2 tetramerization entry in series [5] is on record as “dose dependently promoted formation of the active tetrameric form of PKM2”. The “oligomycin-dependent OCR (OCROLG)” value in [6] (10 μM) is given as “OCROLG was reduced”; in [6] (1 to 3 μM, glucose/glutamine medium), “increased oligomycin-dependent OCR”. For the same compound, the HepG2 survival result in series [7] is “did not change HepG2 survival except at the highest dose”. The compound further returned a blood compound level in series [8] of no more than 2.5 ng/mL. Further, the fraction unbound in series [10] is 0.013.
